Laboratory results: US9200260B2, “Compositions and methods for the transfer of a hexosamine to a modified nucleotide in a nucleic acid” (New England Biolabs, Inc., priority 2012, dated 2015)

Columns and labels:
wild-type BGT [1] = target: T1, wild-type BGT (Enterobacteria phage T4, UniProt P04547); settings: 0.02 to 10.0 mM in the presence of 40 μM UDP-Glc; UDP-Glc 0.02 to 20.0 mM in the presence of 5 mM compound
Method: (§1) After adding 100 ng of wild-type BGT or BGT/Y261L, the reaction mixtures were incubated at 37° C. for 1 hour in 1× NEBuffer 4. After glycosylation, the glucosyltransferase was heat-inactivated by incubating for 10 minutes at 70° C. […] Reaction products were separated by electrophoresis on agarose gel and stained with ethidium bromide.
(§2) Concentration values are given in mM.

BGT/Y261L [2] = target: T2, BGT/Y261L (Enterobacteria phage T4, UniProt P04547, Y261L); settings: 0.02 to 10.0 mM in the presence of 40 μM UDP-Glc; UDP-Glc 0.02 to 20.0 mM in the presence of 5 mM compound
Method: as §1, §2

[3] = target: T3, wild-type BGT (T4-β-glucosyltransferase) (Enterobacteria phage T4, UniProt P04547); test: Enzymatic transfer of UDP-sugars to BGT DNA by wild-type BGT (protection from MfeI cleavage, agarose gel); type: biochemical; settings: for UDP-Sugar concentration required for complete protection of BGT DNA from MfeI cleavage: enzyme BGT, 100 ng, 0.25 μg BGT DNA, 37° C. 1 h, >> incomplete protection at highest tested concentration, n.a. no activity
T3 construct: purchased New England Biolabs, Inc. (Ipswich, Mass.)
T3 sequence (P04547 1-351): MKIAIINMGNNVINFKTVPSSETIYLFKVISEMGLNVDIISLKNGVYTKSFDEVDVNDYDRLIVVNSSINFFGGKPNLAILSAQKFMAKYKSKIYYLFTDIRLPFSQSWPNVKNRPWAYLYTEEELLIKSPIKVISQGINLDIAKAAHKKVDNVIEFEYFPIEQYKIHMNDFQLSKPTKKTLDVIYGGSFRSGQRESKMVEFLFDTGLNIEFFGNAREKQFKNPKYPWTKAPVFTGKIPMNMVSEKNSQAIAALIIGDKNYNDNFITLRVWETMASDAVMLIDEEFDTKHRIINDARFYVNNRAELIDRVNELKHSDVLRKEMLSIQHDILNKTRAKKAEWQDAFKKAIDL
Method: (§3) After glycosylation, the glucosyltransferase was heat-inactivated by incubating for 10 minutes at 70° C. To analyze the enzyme-catalyzed transfer efficiency, samples were incubated with 1 μL (20 units) MfeI for 1 hour at 37° C. Reaction products were separated by agarose gel electrophoresis and stained with ethidium bromide to check for complete protection of BGT DNA against MfeI cleavage. […]
(§4) BGT DNA contains 5-hmC instead of cytosine and was produced from phage deficient in α- and β-glucosyltransferases. The degree of glycosylation of BGT DNA was determined by incubating the samples with the restriction endonuclease MfeI.
(§5) Top row: wild-type BGT; middle row: BGT/Y261L; bottom row: wild-type AGT. […] Then the glucosyltransferase was killed by heat at 70° C., and 1 μL (20 units) MfeI was added and incubated at 37° C. for 1 hour. The results were analyzed by agarose gel electrophoresis. Concentration values are given in mM.
(§6) Top row: wild-type BGT; middle row: BGT/Y261L; bottom row: wild-type AGT. […] Various concentrations of each substrate (as indicated) were incubated with 0.25 μg BGT DNA in the presence of 100 ng glucosyltransferase at 37° C. for 1 hour. Then the glucosyltransferase was killed by heat at 70° C. for 10 minutes, and 1 μL (20 units) MfeI was added and incubated at 37° C. for 1 hour. The results were analyzed by agarose gel electrophoresis. Concentration values are given in mM.

[4] = target: T4, wild-type AGT (T4 phage α-glucosyltransferase) (Enterobacteria phage T4, UniProt P04519); test: Enzymatic transfer of UDP-sugars to BGT DNA by wild-type AGT (protection from MfeI cleavage, agarose gel); type: biochemical; settings: for UDP-Sugar concentration required for complete protection of BGT DNA from MfeI cleavage: enzyme AGT, 100 ng, 0.25 μg BGT DNA, 37° C. 1 h, >> incomplete protection at highest tested concentration, n.a. no activity
T4 construct: purchased New England Biolabs, Inc. (Ipswich, Mass.)
Method: After glycosylation, the glucosyltransferase was heat-inactivated by incubating for 10 minutes at 70° C. To analyze the enzyme-catalyzed transfer efficiency, samples were incubated with 1 μL (20 units) MfeI for 1 hour at 37° C. Reaction products were separated by agarose gel electrophoresis and stained with ethidium bromide to check for complete protection of BGT DNA against MfeI cleavage.
Nucleic Acids Res., 13, 7551-7568; Szwagierczak, A., Bultmann, S., Schmidt, C. […] Nucleic Acids Res., 38, e181].
as §4, §5, §6

BGT/Y261L [5] = target: T2, BGT/Y261L; type: biochemical; parameters: purchased New England Biolabs, Inc. (Ipswich, Mass.); settings: for transfer efficiency by BGT/Y261L (in words): compared with natural UDP-Glc; for UDP-Sugar concentration required for complete protection of BGT DNA from MfeI cleavage: enzyme BGT/Y261L, 100 ng, 0.25 μg BGT DNA, 37° C. 1 h, >> incomplete protection at highest tested concentration, n.a. no activity
Method: as §3, §4, §5, §6

AGT = AGT (Enterobacteria phage T4, UniProt P04519)
wild-type BGT [6] = target: T1, wild-type BGT; settings: cited from earlier work

T4 sequence (P04519 whole entry): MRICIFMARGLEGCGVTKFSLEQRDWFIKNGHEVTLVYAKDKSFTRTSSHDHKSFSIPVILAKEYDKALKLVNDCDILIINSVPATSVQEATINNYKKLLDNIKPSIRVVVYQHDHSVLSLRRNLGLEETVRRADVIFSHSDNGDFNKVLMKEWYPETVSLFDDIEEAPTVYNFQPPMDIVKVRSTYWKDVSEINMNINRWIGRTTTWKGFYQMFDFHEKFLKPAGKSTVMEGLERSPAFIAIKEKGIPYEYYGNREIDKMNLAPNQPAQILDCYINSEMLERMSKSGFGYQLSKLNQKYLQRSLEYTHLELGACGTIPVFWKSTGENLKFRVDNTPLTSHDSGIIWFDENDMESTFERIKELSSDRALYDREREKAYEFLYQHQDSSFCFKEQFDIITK
T2 sequence (P04547 whole entry Y261L): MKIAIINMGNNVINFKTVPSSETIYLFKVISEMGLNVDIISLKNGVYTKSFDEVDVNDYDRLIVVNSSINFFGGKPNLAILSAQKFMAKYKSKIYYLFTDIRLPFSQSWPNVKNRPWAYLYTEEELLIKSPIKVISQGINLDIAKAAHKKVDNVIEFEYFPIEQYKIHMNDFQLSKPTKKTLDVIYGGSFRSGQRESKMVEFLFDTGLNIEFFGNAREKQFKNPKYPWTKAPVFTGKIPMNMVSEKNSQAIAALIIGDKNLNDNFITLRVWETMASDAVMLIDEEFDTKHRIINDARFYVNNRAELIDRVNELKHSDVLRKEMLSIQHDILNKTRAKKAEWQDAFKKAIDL
AGT, sequence (P04519 whole entry): as the sequence (P04519 whole entry) above

**Q.** For `[N-]=[N+]=NC1C(OP(=O)(O)OP(=O)(O)OCC2OC(n3ccc(=O)[nH]c3=O)C(O)C2O)OC(CO)C(O)C1O` (stereo not shown) [Compound 2, UDP-2-Azido-Glc], which “inhibition of wild-type BGT (mode, in words)” value (wild-type BGT [1]) is on record?
**A.** competitive inhibitor

**Q.** And the “inhibition of BGT/Y261L (mode, in words)” value (BGT/Y261L [2])?
**A.** competitive inhibitor

**Q.** What about the “transfer efficiency by wild-type BGT (in words)” value ([3]; compared with natural UDP-Glc) of the same compound?
**A.** None of the three tested enzymes efficiently transferred

**Q.** And the “transfer efficiency by wild-type AGT (in words)” value [4]?
**A.** None of the three tested enzymes efficiently transferred

**Q.** What about the “transfer efficiency by BGT/Y261L (in words)” value (BGT/Y261L [5]) of the same compound?
**A.** None of the three tested enzymes efficiently transferred

**Q.** What about the “inhibition of AGT (in words)” value (AGT) of the same compound?
**A.** not for AGT

**Q.** What does the source list for `NCC1OC(OP(=O)(O)OP(=O)(O)OC[C@H]2O[C@@H](n3ccc(=O)[nH]c3=O)[C@H](O)[C@@H]2O)C(O)C(O)C1O` (stereo partly shown) [Compound 3, UDP-6-glucosamine]?
**A.** UDP-Sugar concentration required for complete protection of BGT DNA from MfeI cleavage [3]: 0.02 mM; UDP-Sugar concentration required for complete protection of BGT DNA from MfeI cleavage [4]: >>5.0 mM; UDP-Sugar concentration required for complete protection of BGT DNA from MfeI cleavage (BGT/Y261L [5]): 0.31 mM; transfer efficiency by BGT/Y261L, lower than natural UDP-Glc (BGT/Y261L [5]; relative to natural UDP-Glc): about 15 fold

**Q.** For `CC(=O)N[C@H]1[C@@H](OP(=O)(O)OP(=O)(O)OC[C@H]2O[C@@H](n3ccc(=O)[nH]c3=O)[C@H](O)[C@@H]2O)O[C@H](CO)[C@@H](O)[C@@H]1O` [UDP-GlcNAc, UDP-N-acetyl-D-glucosamine, reference compound], which “UDP-Sugar concentration required for complete protection of BGT DNA from MfeI cleavage” value (“UDP-Sugar concentration required” below) [3] is on record?
**A.** 25 mM

**Q.** And the “UDP-Sugar concentration required” value [4]?
**A.** >>20.0 mM

**Q.** And the “transfer by BGT/Y261L more efficient than by wild-type BGT” value (BGT/Y261L [5]; BGT/Y261L versus wild-type BGT)?
**A.** 10 fold

**Q.** And the “UDP-Sugar concentration required” value (BGT/Y261L [5])?
**A.** 2.5 mM

**Q.** What about the “transfer efficiency by the Y261L enzyme, lower compared to UDP-2-GlcN 4” value (BGT/Y261L [5]; relative to UDP-2-GlcN 4) of the same compound?
**A.** approximately 100 fold

**Q.** Which “UDP-Sugar concentration required” value [3] does the source give for `[N-]=[N+]=NCC1OC(OP(=O)(O)OP(=O)(O)OC[C@H]2O[C@@H](n3ccc(=O)[nH]c3=O)[C@H](O)[C@@H]2O)C(O)C(O)C1O` (stereo partly shown) [Compound 1, UDP-6-Azido-Glc, reference compound] here?
**A.** 0.04 mM

**Q.** And the “transfer efficiency by BGT/Y261L (in words)” value (BGT/Y261L [5])?
**A.** cannot efficiently transfer

**Q.** And the “UDP-Sugar concentration required” value (BGT/Y261L [5])?
**A.** >>1.0 mM

**Q.** What about the “decrease in the reaction rate compared to the native UDP-Glc cofactor” value (wild-type BGT [6]) of the same compound?
**A.** ~6 fold

**Q.** For `O=C(O)[C@H]1O[C@H](OP(=O)(O)OP(=O)(O)OC[C@H]2O[C@@H](n3ccc(=O)[nH]c3=O)[C@H](O)[C@@H]2O)[C@H](O)[C@@H](O)[C@@H]1O` [UDP-GlcUA, UDP-Glucuronic acid, reference compound], which “UDP-Sugar concentration required” value [3] is on record?
**A.** 1.0 mM

**Q.** What about the “UDP-Sugar concentration required” value [4] of the same compound?
**A.** >>20.0 mM

**Q.** What about the “UDP-Sugar concentration required” value (BGT/Y261L [5]) of the same compound?
**A.** >>10.0 mM

**Q.** For UDP-2-Keto-Glc [Compound 5], which “UDP-Sugar concentration required” value [3] is on record?
**A.** >>4.0 mM

**Q.** And the “transfer by BGT/Y261L at the highest tested concentration” value (BGT/Y261L [5]; 4 mM)?
**A.** not detected

**Q.** And the “UDP-Sugar concentration required” value (BGT/Y261L [5])?
**A.** >>4.0 mM

**Q.** Which “UDP-Sugar concentration required” value [3] does the source give for `N[C@H]1[C@@H](OP(=O)(O)OP(=O)(O)OC[C@H]2O[C@@H](n3ccc(=O)[nH]c3=O)[C@H](O)[C@@H]2O)O[C@H](CO)[C@@H](O)[C@@H]1O` [Compound 4, UDP-2-glucosamine] here?
**A.** 0.03 mM

**Q.** And the “UDP-Sugar concentration required” value [4]?
**A.** >>1.25 mM

**Q.** What about the “UDP-Sugar concentration required” value (BGT/Y261L [5]) of the same compound?
**A.** 0.03 mM
